We go through 13 compounds from ChEMBL document CHEMBL3784957, “Patterns of biofilm structure and formation kinetics among Acinetobacter baumannii clinical isolates with different antibiotic resistance profiles” (2016).

In brackets after ≈: the same amount, converted by molar mass.

What all share (format): functional
In experiment [1] the test system is Acinetobacter baumannii. The experiment in a line: Antimicrobial activity against Acinetobacter baumannii isolate 9 by broth microdilution assay.
Experiment [2] concerns Acinetobacter baumannii. The experiment is described as follows: Antimicrobial activity against Acinetobacter baumannii isolate 3 by broth microdilution assay. (In general: In broth dilution the organism is exposed to a series of concentrations in liquid medium.)
Experiment [3] has as its system Acinetobacter baumannii. The experiment in a line: Antimicrobial activity against Acinetobacter baumannii isolate 30 by broth microdilution assay.
Experiment [4] has as its system Acinetobacter baumannii. The experiment is described as follows: Antimicrobial activity against Acinetobacter baumannii isolate 15 by broth microdilution assay.
Experiment [5] concerns Acinetobacter baumannii. The experiment in a line: Antimicrobial activity against Acinetobacter baumannii isolate 35 by broth microdilution assay.
For experiment [6], the system named is Acinetobacter baumannii. The experiment is described as follows: Antimicrobial activity against Acinetobacter baumannii isolate 12 by broth microdilution assay.
In experiment [7] the test system is Acinetobacter baumannii. The experiment in a line: Antimicrobial activity against Acinetobacter baumannii isolate 26 by broth microdilution assay.
Experiment [8] concerns Acinetobacter baumannii. The experiment in a line: Antimicrobial activity against Acinetobacter baumannii isolate 52 by broth microdilution assay.
Experiment [9] deals with Acinetobacter baumannii. The experiment is described as follows: Antimicrobial activity against Acinetobacter baumannii isolate 59 by broth microdilution assay.
The test system of experiment [10] is Acinetobacter baumannii. The experiment is described as follows: Antimicrobial activity against Acinetobacter baumannii isolate 38 by broth microdilution assay.
In experiment [11] the test system is Acinetobacter baumannii. The experiment in a line: Antimicrobial activity against Acinetobacter baumannii isolate 45 by broth microdilution assay.
Experiment [12] deals with Acinetobacter baumannii. The experiment in a line: Antimicrobial activity against Acinetobacter baumannii isolate 20 by broth microdilution assay.

Consider `C[C@@H](O)[C@H]1C(=O)N2C(C(=O)O)=C(S[C@@H]3CN[C@H](C(=O)N(C)C)C3)[C@H](C)[C@H]12` [MEROPENEM], for which the MIC is greater than 8 µg/mL in the experiment on Acinetobacter baumannii [1]; greater than 8 µg/mL in the experiment with Acinetobacter baumannii [2]; 2 µg/mL (≈ 5.22 µM) with Acinetobacter baumannii [3]; greater than 8 µg/mL against Acinetobacter baumannii [4]; 8 µg/mL (≈ 20.9 µM) in the experiment on Acinetobacter baumannii [5]; greater than 8 µg/mL against Acinetobacter baumannii [6]. Moreover, the MIC with Acinetobacter baumannii [7] was 1 µg/mL (≈ 2.61 µM); in the experiment on Acinetobacter baumannii [8], greater than 8 µg/mL; against Acinetobacter baumannii [9] it was 1 µg/mL (≈ 2.61 µM); against Acinetobacter baumannii [10], no more than 0.25 µg/mL; against Acinetobacter baumannii [11], 8 µg/mL (≈ 20.9 µM); with Acinetobacter baumannii [12], greater than 8 µg/mL.

For the compound `NCC[C@H](O)C(=O)N[C@@H]1C[C@H](N)[C@@H](O[C@H]2O[C@H](CN)[C@@H](O)[C@H](O)[C@H]2O)[C@H](O)[C@H]1O[C@H]1O[C@H](CO)[C@@H](O)[C@H](N)[C@H]1O` [AMIKACIN], the MIC in the experiment on Acinetobacter baumannii [1] is greater than 32 µg/mL; against Acinetobacter baumannii [2] it was no more than 2 µg/mL; with Acinetobacter baumannii [3] it was 4 µg/mL (≈ 6.83 µM); in the experiment on Acinetobacter baumannii [4] it was 16 µg/mL (≈ 27.3 µM); against Acinetobacter baumannii [5] it was no more than 2 µg/mL; against Acinetobacter baumannii [6], 8 µg/mL (≈ 13.7 µM). For the same compound, the MIC against Acinetobacter baumannii [7] is no more than 2 µg/mL; in the experiment on Acinetobacter baumannii [8] it was no more than 2 µg/mL; against Acinetobacter baumannii [9] it was no more than 2 µg/mL; in the experiment on Acinetobacter baumannii [10], no more than 2 µg/mL; in the experiment with Acinetobacter baumannii [11], no more than 2 µg/mL; with Acinetobacter baumannii [12], greater than 32 µg/mL.

Regarding `CN(C)c1ccc(O)c2c1C[C@H]1C[C@H]3[C@H](N(C)C)C(O)=C(C(N)=O)C(=O)[C@@]3(O)C(O)=C1C2=O` [MINOCYCLINE], the MIC was 8 µg/mL (≈ 17.5 µM) in the experiment with Acinetobacter baumannii [1]; 2 µg/mL (≈ 4.37 µM) against Acinetobacter baumannii [2]; no more than 1 µg/mL in the experiment on Acinetobacter baumannii [3]; no more than 1 µg/mL against Acinetobacter baumannii [4]; no more than 1 µg/mL in the experiment with Acinetobacter baumannii [5]; no more than 1 µg/mL with Acinetobacter baumannii [6]. Besides, the MIC is 2 µg/mL (≈ 4.37 µM) against Acinetobacter baumannii [7]; no more than 1 µg/mL in the experiment on Acinetobacter baumannii [8]; no more than 1 µg/mL against Acinetobacter baumannii [9]; no more than 1 µg/mL in the experiment with Acinetobacter baumannii [10]; 2 µg/mL (≈ 4.37 µM) against Acinetobacter baumannii [11]; 8 µg/mL (≈ 17.5 µM) against Acinetobacter baumannii [12].

For the compound COLISTIN, the MIC in the experiment on Acinetobacter baumannii [1] was less than 0.5 µg/mL; with Acinetobacter baumannii [2] it was less than 0.5 µg/mL; in the experiment on Acinetobacter baumannii [3], less than 0.5 µg/mL; against Acinetobacter baumannii [4] it was less than 0.5 µg/mL; with Acinetobacter baumannii [5], less than 0.5 µg/mL; with Acinetobacter baumannii [6], 16 µg/mL. Also, the MIC was less than 0.5 µg/mL against Acinetobacter baumannii [7]; less than 0.5 µg/mL with Acinetobacter baumannii [8]; less than 0.5 µg/mL against Acinetobacter baumannii [9]; less than 0.5 µg/mL against Acinetobacter baumannii [10]; 8 µg/mL in the experiment on Acinetobacter baumannii [11]; less than 0.5 µg/mL against Acinetobacter baumannii [12].

For `O=C(O)c1cn(C2CC2)c2cc(N3CCNCC3)c(F)cc2c1=O` [CIPROFLOXACIN], the MIC against Acinetobacter baumannii [1], against Acinetobacter baumannii [2], with Acinetobacter baumannii [3], against Acinetobacter baumannii [4], in the experiment with Acinetobacter baumannii [5] and in the experiment with Acinetobacter baumannii [6] was greater than 2 µg/mL throughout. Also, the MIC was greater than 2 µg/mL against Acinetobacter baumannii [7]; greater than 2 µg/mL against Acinetobacter baumannii [8]; no more than 0.25 µg/mL with Acinetobacter baumannii [9]; no more than 0.25 µg/mL with Acinetobacter baumannii [10]; greater than 2 µg/mL in the experiment with Acinetobacter baumannii [11]; greater than 2 µg/mL against Acinetobacter baumannii [12].

On to `CC(C)(O/N=C(\C(=O)N[C@@H]1C(=O)N2C(C(=O)[O-])=C(C[n+]3ccccc3)CS[C@H]12)c1csc(N)n1)C(=O)O` [CEFTAZIDIME], for which the MIC in the experiment on Acinetobacter baumannii [1] was greater than 32 µg/mL; in the experiment with Acinetobacter baumannii [2], greater than 32 µg/mL; against Acinetobacter baumannii [3], 16 µg/mL (≈ 29.3 µM); against Acinetobacter baumannii [4], greater than 32 µg/mL; against Acinetobacter baumannii [5], greater than 16 µg/mL; in the experiment with Acinetobacter baumannii [6], 16 µg/mL (≈ 29.3 µM). Besides, the MIC was greater than 32 µg/mL against Acinetobacter baumannii [7]; greater than 32 µg/mL with Acinetobacter baumannii [8]; 2 µg/mL (≈ 3.66 µM) with Acinetobacter baumannii [9]; 4 µg/mL (≈ 7.32 µM) with Acinetobacter baumannii [10]; greater than 32 µg/mL against Acinetobacter baumannii [11]; greater than 32 µg/mL against Acinetobacter baumannii [12].

Take `CCN1CCN(C(=O)N[C@@H](C(=O)N[C@@H]2C(=O)N3[C@@H]2SC(C)(C)[C@@H]3C(=O)O)c2ccccc2)C(=O)C1=O` [PIPERACILLIN]: the MIC with Acinetobacter baumannii [1], against Acinetobacter baumannii [2], against Acinetobacter baumannii [3], in the experiment with Acinetobacter baumannii [4], in the experiment with Acinetobacter baumannii [5] and against Acinetobacter baumannii [6] was greater than 64 µg/mL throughout. Also, the MIC is greater than 64 µg/mL in the experiment on Acinetobacter baumannii [7]; greater than 64 µg/mL against Acinetobacter baumannii [8]; no more than 8 µg/mL with Acinetobacter baumannii [9]; no more than 8 µg/mL against Acinetobacter baumannii [10]; greater than 64 µg/mL in the experiment on Acinetobacter baumannii [11]; greater than 64 µg/mL against Acinetobacter baumannii [12].

Regarding `C[C@@H](O)[C@H]1C(=O)N2C(C(=O)O)=C(SCCNC=N)C[C@H]12` [IMIPENEM ANHYDROUS], the MIC against Acinetobacter baumannii [1] was greater than 8 µg/mL; in the experiment on Acinetobacter baumannii [2] it was greater than 8 µg/mL; against Acinetobacter baumannii [3], 2 µg/mL (≈ 6.68 µM); against Acinetobacter baumannii [4], greater than 8 µg/mL; against Acinetobacter baumannii [5], greater than 8 µg/mL; with Acinetobacter baumannii [6], greater than 8 µg/mL. Also, the MIC with Acinetobacter baumannii [7] is no more than 1 µg/mL; in the experiment with Acinetobacter baumannii [8] it was greater than 8 µg/mL; against Acinetobacter baumannii [9] it was no more than 1 µg/mL; in the experiment with Acinetobacter baumannii [10] it was no more than 1 µg/mL; in the experiment with Acinetobacter baumannii [11], greater than 8 µg/mL; against Acinetobacter baumannii [12], greater than 8 µg/mL.

Take `CO/N=C(\C(=O)N[C@@H]1C(=O)N2C(C(=O)[O-])=C(C[N+]3(C)CCCC3)CS[C@H]12)c1csc(N)n1` [CEFEPIME]: the MIC against Acinetobacter baumannii [1] was 32 µg/mL (≈ 66.6 µM); against Acinetobacter baumannii [2] it was 16 µg/mL (≈ 33.3 µM); with Acinetobacter baumannii [3], 16 µg/mL (≈ 33.3 µM); in the experiment on Acinetobacter baumannii [4] it was greater than 32 µg/mL; in the experiment on Acinetobacter baumannii [5], 8 µg/mL (≈ 16.6 µM); with Acinetobacter baumannii [6], 32 µg/mL (≈ 66.6 µM). The MIC against Acinetobacter baumannii [7] is 16 µg/mL (≈ 33.3 µM); with Acinetobacter baumannii [8] it was greater than 32 µg/mL; against Acinetobacter baumannii [9] it was 2 µg/mL (≈ 4.16 µM); in the experiment on Acinetobacter baumannii [10], 2 µg/mL (≈ 4.16 µM); against Acinetobacter baumannii [11], 8 µg/mL (≈ 16.6 µM); against Acinetobacter baumannii [12], greater than 32 µg/mL.

On to `C[C@H]1COc2c(N3CCN(C)CC3)c(F)cc3c(=O)c(C(=O)O)cn1c23.C[C@H]1COc2c(N3CCN(C)CC3)c(F)cc3c(=O)c(C(=O)O)cn1c23.O` [LEVOFLOXACIN], for which the MIC in the experiment on Acinetobacter baumannii [1], in the experiment with Acinetobacter baumannii [2], against Acinetobacter baumannii [3], against Acinetobacter baumannii [4], in the experiment with Acinetobacter baumannii [5] and against Acinetobacter baumannii [6] was greater than 4 µg/mL each time. In addition, the MIC is greater than 4 µg/mL against Acinetobacter baumannii [7]; greater than 4 µg/mL with Acinetobacter baumannii [8]; no more than 0.12 µg/mL with Acinetobacter baumannii [9]; no more than 0.12 µg/mL with Acinetobacter baumannii [10]; greater than 4 µg/mL against Acinetobacter baumannii [11]; greater than 4 µg/mL against Acinetobacter baumannii [12].

Take `NC[C@H]1O[C@H](O[C@H]2[C@H](O)[C@@H](O[C@H]3O[C@H](CO)[C@@H](O)[C@H](N)[C@H]3O)[C@H](N)C[C@@H]2N)[C@H](N)C[C@@H]1O` [TOBRAMYCIN]: the minimum inhibitory concentration (MIC) is greater than 8 µg/mL in the experiment on Acinetobacter baumannii [1]; no more than 1 µg/mL against Acinetobacter baumannii [2]; 8 µg/mL (≈ 17.1 µM) against Acinetobacter baumannii [3]; greater than 8 µg/mL against Acinetobacter baumannii [4]; greater than 8 µg/mL against Acinetobacter baumannii [5]; greater than 8 µg/mL in the experiment with Acinetobacter baumannii [6]. Moreover, the MIC against Acinetobacter baumannii [7] is no more than 1 µg/mL; with Acinetobacter baumannii [8], no more than 1 µg/mL; in the experiment on Acinetobacter baumannii [9], no more than 1 µg/mL; in the experiment with Acinetobacter baumannii [10], greater than 8 µg/mL; against Acinetobacter baumannii [11], 8 µg/mL (≈ 17.1 µM); against Acinetobacter baumannii [12], greater than 8 µg/mL.

With `CC1(C)S[C@@H]2[C@H](NC(=O)[C@H](C(=O)O)c3ccsc3)C(=O)N2[C@H]1C(=O)O` [TICARCILLIN], the minimum inhibitory concentration (MIC) in the experiment with Acinetobacter baumannii [1] was greater than 64 µg/mL; against Acinetobacter baumannii [2], greater than 64 µg/mL; in the experiment with Acinetobacter baumannii [3], greater than 64 µg/mL; in the experiment with Acinetobacter baumannii [4], greater than 64 µg/mL; against Acinetobacter baumannii [5], greater than 64 µg/mL; with Acinetobacter baumannii [6] it was 64 µg/mL (≈ 166 µM). In addition, the MIC is 32 µg/mL (≈ 83.2 µM) in the experiment with Acinetobacter baumannii [7]; greater than 64 µg/mL with Acinetobacter baumannii [8]; no more than 8 µg/mL against Acinetobacter baumannii [9]; no more than 8 µg/mL against Acinetobacter baumannii [10]; greater than 64 µg/mL in the experiment with Acinetobacter baumannii [11]; greater than 64 µg/mL against Acinetobacter baumannii [12].

In the case of GENTAMICIN, the minimal inhibitory concentration (MIC) with Acinetobacter baumannii [1] was greater than 8 µg/mL; against Acinetobacter baumannii [2], less than 1 µg/mL; in the experiment on Acinetobacter baumannii [3] it was greater than 8 µg/mL; in the experiment on Acinetobacter baumannii [4], greater than 8 µg/mL; with Acinetobacter baumannii [5], greater than 8 µg/mL; in the experiment with Acinetobacter baumannii [6], greater than 8 µg/mL. Also, the MIC with Acinetobacter baumannii [7] was less than 1 µg/mL; against Acinetobacter baumannii [8], 4 µg/mL; in the experiment with Acinetobacter baumannii [9], less than 1 µg/mL; against Acinetobacter baumannii [10] it was less than 1 µg/mL; with Acinetobacter baumannii [11], greater than 8 µg/mL; in the experiment with Acinetobacter baumannii [12], greater than 8 µg/mL.

As usually defined, the MIC is the smallest concentration in the dilution series that meets the test's criterion for growth inhibition. A low value points to a more susceptible organism.
